Results taken from ChEMBL document CHEMBL3880399 (2004).
Activity calls are given as the source filed them. The rule behind the calls is not given here.

Columns and labels:
[1] = system: Homo sapiens; assay: Potentiation of levadopa-induced improvements in parkinsonian symptoms in parkinsonian patient administered orally once daily for four weeks with dose escalating once each week (30 mg on week2, 70 mg on week3, 150 mg on week 4 and 300 mg on week 5) in placebo controlled study lasting for 5 weeks measured on first day of each dose escalation; type: functional
[2] = system: Rattus norvegicus; assay: Antipsychotic activity in rat assessed as reduction in MK-801-induced locomotor behaviors at 1 mg/kg, ip; type: functional, organism-based
[3] = system: Mus musculus; assay: Reduction in d-amphetamine-induced hyperactivity in sc dosed mouse; type: functional

Question: How did the EC50 [1] turn out when `CN1CCN(C2=Nc3cc(Cl)ccc3Nc3ccccc32)CC1` [CLOZAPINE] was run?
Answer: The EC50 was 6.4 nM.

Question: And the Activity [2]?
Answer: The Activity was “Active”.

Question: `O=C(CCCN1CCC(O)(c2ccc(Cl)cc2)CC1)c1ccc(F)cc1` was tested. Which Activity [3] did it give?
Answer: The Activity was “Dose-dependent effect”.
